Data: US5264429A, “2-spirocyclopropyl cephalosporin sulfone derivatives” (SynPhar Laboratories, Inc., priority 1991, dated 1993)
Read-outs that look alike come from different tables or passages of the source.

Columns and labels:
trypsin = molecular target: T1, trypsin (Bos taurus, UniProt P00760); experiment: Inhibition of trypsin (TRY); type: biochemical, bovine
T1 construct: from tissue; host or cells: bovine pancreas
T1 sequence (P00760 24-246): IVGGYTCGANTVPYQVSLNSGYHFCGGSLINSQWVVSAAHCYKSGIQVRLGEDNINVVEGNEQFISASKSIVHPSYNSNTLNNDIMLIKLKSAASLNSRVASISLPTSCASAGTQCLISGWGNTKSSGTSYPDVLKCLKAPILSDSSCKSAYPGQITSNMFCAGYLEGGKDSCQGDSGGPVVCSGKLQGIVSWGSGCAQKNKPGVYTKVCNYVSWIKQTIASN
Method: Enzyme: Purified trypsin from bovine pancreas
Substrate: Bz-L-arginine-p-NA
Reaction mixture: 50 mM Tricine[N-Tris(hydroxymethyl)methylglycine]-NaOH buffer (pH 8.8) 150 mM NaCl, 10% DMSO 1.0 mM Substrate.
Inhibition of enzymes by the compounds described were determined after a 10 minute preincubation with enzymes in reaction mixtures minus substrate. Reactions were initiated by the addition of substrates. […] All other proteases were assayed at the concentrations that produced approximately 0.1 O.D. change per minute at 410 nm under the standard conditions.

cathepsin C = molecular target: T2, cathepsin C (Bos taurus, UniProt Q3ZCJ8); experiment: Inhibition of cathepsin C (CTC); type: biochemical, bovine
T2 construct: from tissue; host or cells: bovine spleen
Method: (§1) HLE, CTG, PPE and CTD were tested at 30° C. and the others were
TRY, trypsin; THR, thrombin; PTH, plasmin; CTC, cathepsin C; ATM,
Enzyme: Purified cathepsin C from bovine spleen
Substrate: Glycyl-L-phenylalanine-pNA
Reaction mixture: 50 mM Citrate buffer (pH 5.4), 5 mM B-Mercaptoethanol, 150 mM NaCl, 10% DMSO, 20 mM Substrate.
(§2) Except for Cathepsin D, the enzyme activities were determined by monitoring the increase in absorbance at 410 nm caused by the hydrolysis of chromogenic substrates. The activity of Cathepsin D was determined by monitoring the absorbance of 5% trichloroacetic acid-soluble material at 280 nm.
(§3) Inhibition of enzymes by the compounds described were determined after a 10 minute preincubation with enzymes in reaction mixtures minus substrate. Reactions were initiated by the addition of substrates. The concentration used for assays were porcine pancreatic elastase at 240 nM and human Cathepsin G at 50 nM. Cathepsin D was used at the concentration that produced approximately 0.15 O.D. increase per 20 min at 280 nm under the standard conditions. All other proteases were assayed at the concentrations that produced approximately 0.1 O.D. change per minute at 410 nm under the standard conditions.

cathepsin G = molecular target: T3, cathepsin G (Homo sapiens, UniProt P08311); experiment: Inhibition of cathepsin G (CTG); type: biochemical
T3 construct: from tissue; host or cells: human white blood cells
T3 sequence (P08311 21-244 limits assumed): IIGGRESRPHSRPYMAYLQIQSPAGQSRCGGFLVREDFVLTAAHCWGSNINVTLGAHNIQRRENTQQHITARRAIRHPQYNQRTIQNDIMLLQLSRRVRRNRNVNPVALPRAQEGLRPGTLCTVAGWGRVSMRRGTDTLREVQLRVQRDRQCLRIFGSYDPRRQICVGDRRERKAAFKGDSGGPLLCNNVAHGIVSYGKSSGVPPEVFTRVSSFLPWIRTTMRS
Method: Enzyme: Purified Cathepsin G from human white blood cells
Substrate: N-succinyl-L-alanyl-L-alanyl-L-phenylalanyl-L-phenylalanine -p-NA.
Reaction mixture: 10 mM Phosphate buffer (pH 7.5), 500 mM NaCl, 10% DMSO, 2.0 mM Substrate.

[1] = molecular target: T4, porcine pancreatic elastase (Sus scrofa, UniProt P00772); experiment: Inhibition of porcine pancreatic elastase (PPE); type: biochemical; conditions: porcine pancreatic elastase 240 nM, pH 8.9, 10 minute preincubation, 30° C.
T4 construct: from tissue; host or cells: porcine pancreas
Method: as §1
aminopeptidase M; CTG, cathespin G; CTD, cathespin D; PPE, porcine
Porcine pancreatic Elastase (PPE)
Enzyme: Purified elastase from porcine pancreas
Substrate: MeO-succinyl-L-alanyl-L-alanyl-L-prolyl-L-valine-pNA
Reaction mixture: 50 mM Tris[Tris(hydroxymethyl) aminomethane]. HCl buffer (pH 8.9), 500 mM NaCl, 10% DMSO, 1.4 mM Substrate.
as §2, §3

[2] = trypsin, pH 8.8, 10 minute preincubation, 22° C., read-out: IC50 TRY (converted)
[3] = cathepsin C, pH 5.4, 10 minute preincubation, 22° C., read-out: IC50 CTC
[4] = cathepsin G 50 nM, pH 7.5, 10 minute preincubation, 30° C., read-out: IC50 CTG (converted)

T4 sequence (P00772 27-266): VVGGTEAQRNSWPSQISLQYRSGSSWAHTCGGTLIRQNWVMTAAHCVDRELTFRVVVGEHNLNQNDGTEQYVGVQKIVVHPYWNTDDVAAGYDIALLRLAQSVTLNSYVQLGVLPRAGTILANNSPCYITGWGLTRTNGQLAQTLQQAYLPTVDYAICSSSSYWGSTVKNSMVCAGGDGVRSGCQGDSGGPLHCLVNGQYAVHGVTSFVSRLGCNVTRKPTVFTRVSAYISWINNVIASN
T2 sequence (Q3ZCJ8 231-394 limits assumed): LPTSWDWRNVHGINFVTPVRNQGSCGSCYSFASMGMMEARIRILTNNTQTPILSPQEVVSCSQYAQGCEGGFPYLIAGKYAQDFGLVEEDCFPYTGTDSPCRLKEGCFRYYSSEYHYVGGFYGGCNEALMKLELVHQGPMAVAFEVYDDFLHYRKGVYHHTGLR
T2 sequence (Q3ZCJ8 395-463 limits assumed): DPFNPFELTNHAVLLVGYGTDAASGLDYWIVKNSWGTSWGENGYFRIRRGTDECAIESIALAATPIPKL
T2 sequence (Q3ZCJ8 25-134 limits assumed): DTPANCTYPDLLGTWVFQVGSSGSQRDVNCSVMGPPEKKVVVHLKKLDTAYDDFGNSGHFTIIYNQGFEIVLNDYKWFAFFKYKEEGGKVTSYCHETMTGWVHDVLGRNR

`CC1=C(C(=O)OC(c2ccccc2)c2ccccc2)N2C(=O)[C@H](Cl)[C@H]2S(=O)(=O)C12CC2(c1ccccc1)c1ccccc1` (single isomer, unassigned) [Example 1, Benzhydryl 7α-chloro-2-spiro(2',2'-diphenyl) cyclopropyl-3-methyl-3-cephem-4-carboxylate-1,1-dioxide] was tested, and the IC50 (trypsin; [2]) was > 60 µM, the IC50 (cathepsin C; [3]) was > 60 µM and the IC50 (cathepsin G; [4]) was 20 µM. For the same molecule, the IC50 [1] was 0.0328 µM.
In the case of `CC1=C(C(=O)OC(c2ccccc2)c2ccccc2)N2C(=O)[C@H](Br)[C@H]2S(=O)(=O)C12CC2(c1ccccc1)c1ccccc1` (single isomer, unassigned) [Example 2, benzhydryl 7α-bromo-2-spiro(2', 2'-diphenyl) cyclopropyl-3-methyl-3-cephem-4-carboxylate-1,1-dioxide], the IC50 (trypsin; [2]) is reported as > 37 µM, the IC50 (cathepsin C; [3]) is reported as > 38.5 µM and the IC50 (cathepsin G; [4]) is reported as > 16.2 µM. The IC50 [1] was 0.0183 µM.
`CC1=C(C(=O)OC(c2ccccc2)c2ccccc2)N2C(=O)[C@H](Br)[C@H]2S(=O)(=O)C12CC2(c1ccc(Cl)cc1)c1ccc(Cl)cc1` (single isomer, unassigned) [Example 12, Benzhydryl 7α-bromo-2-spiro [2',2'-(4',4'-dichloro)diphenyl]cyclopropyl-3-methyl-3-cephem-4-carboxylate-1,1-dioxide] was tested, and the IC50 (trypsin) was 55.3 µM, the IC50 (cathepsin C) was > 55.3 µM and the IC50 (cathepsin G; [4]) was 19.4 µM. For the same molecule, the IC50 [1] was 0.235 µM.
With `CC1=C(C(=O)OC(c2ccccc2)c2ccccc2)N2C(=O)[C@H](Br)[C@H]2S(=O)(=O)C12CC2(c1ccc(F)cc1)c1ccc(F)cc1` (single isomer, unassigned) [Example 13, Benzhydryl 7α-bromo-2-spiro[2',2'-(4',4'-difluoro)diphenyl] cyclopropyl-3-methyl-3-cephem-4-carboxylate-1,1-dioxide] the IC50 (trypsin) was > 40 µM, the IC50 (cathepsin C) was > 40 µM and the IC50 (cathepsin G; [4]) was 19 µM. The IC50 [1] was 0.0637 µM.
`CC1=C(C(=O)OC(C)(C)C)N2C(=O)[C@H](Br)[C@H]2S(=O)(=O)C12CC2(c1ccccc1)c1ccccc1` (stereo partly drawn) [Example 3, t-Butyl 7α-bromo-2-spiro(2',2'-diphenyl) cyclopropyl-3-methyl-3-cephem 4-carboxylate-1,1-dioxide] was tested, and the IC50 (trypsin; [2]) was > 40 µM, the IC50 (cathepsin C; [3]) was > 40 µM and the IC50 (cathepsin G; [4]) was 40 µM. It also gave an IC50 [1] of 0.0937 µM.
In the case of `CC1=C(C(=O)N2CCCC2)N2C(=O)[C@H](Br)[C@H]2S(=O)(=O)C12CC2(c1ccccc1)c1ccccc1` (stereo partly drawn) [Example 6, 7α Bromo-2-spiro(2',2'-diphenyl)cyclopropyl-3-methyl-3-cephem-4-pyrrolidine carboxamide-1,1-dioxide], the IC50 (trypsin; [2]) is reported as > 39 µM, the IC50 (cathepsin C; [3]) is reported as > 9.77 µM and the IC50 (cathepsin G; [4]) is reported as > 39 µM. The IC50 [1] was 0.203 µM.
For `CCO[C@H]1C(=O)N2C(C(=O)OCC(Cl)(Cl)Cl)=C(C)C3(CC3(c3ccccc3)c3ccccc3)S(=O)(=O)[C@H]12` (stereo partly drawn) [Example 7, 2,2,2-Trichloroethyl-7α-ethoxy-2-spiro(2',2'-diphenyl)cyclo-propyl-3-methyl-3-cephem-4-carboxylate-1,1-dioxide], the IC50 (trypsin; [2]) was > 10 µM, the IC50 (cathepsin C; [3]) was > 10 µM and the IC50 (cathepsin G; [4]) was 0.32 µM. The IC50 [1] was 0.0161 µM.
`CO[C@H]1C(=O)N2C(C(=O)OCC(Cl)(Cl)Cl)=C(C)C3(CC3(c3ccccc3)c3ccccc3)S(=O)(=O)[C@H]12` (stereo partly drawn) [Example 8, 2,2,2-Trichloroethyl-7α-methoxy-2-spiro(2',2'-diphenyl) cyclopropyl-3-methyl-3-cephem-4-carboxylate-1,1-dioxide] was tested, and the IC50 (trypsin; [2]) was 0.648 µM, the IC50 (cathepsin C) was > 9.98 µM and the IC50 (cathepsin G; [4]) was 0.403 µM. For the same molecule, the IC50 [1] was 0.0228 µM.
In the case of `CO[C@H]1C(=O)N2C(C(=O)OC(c3ccccc3)c3ccccc3)=C(C)C3(CC3(c3ccccc3)c3ccccc3)S(=O)(=O)[C@H]12` (stereo partly drawn) [Example 9, Benzhydryl 7α-methoxy-2-spiro (2',2'-diphenyl) cyclopropyl-3-methyl-3-cephem-4-carboxylate-1,1-dioxide], the IC50 (trypsin) is reported as > 10 µM, the IC50 (cathepsin C) is reported as > 10 µM and the IC50 (cathepsin G; [4]) is reported as > 10 µM. It also gave an IC50 [1] of 0.0545 µM.
With `CO[C@H]1C(=O)N2C(C(=O)N3CCCC3)=C(C)C3(CC3(c3ccccc3)c3ccccc3)S(=O)(=O)[C@H]12` (stereo partly drawn) [Example 10, 7α-Methoxy-2-spiro (2',2'-diphenyl)cyclopropyl-3-methyl-3-cephem-4-pyrrolidine carboxamide-1,1-dioxide] the IC50 (trypsin; [2]) was > 35.9 µM, the IC50 (cathepsin C; [3]) was > 9.99 µM and the IC50 (cathepsin G; [4]) was > 30.9 µM. It also gave an IC50 [1] of 0.0832 µM.
With `CCOC(=O)C1CC12C(C)=C(C(=O)OC(c1ccccc1)c1ccccc1)N1C(=O)[C@H](Br)[C@H]1S2(=O)=O` (stereo partly drawn) [Example 13 (1), Benzhydryl 7α-bromo-2-spiro(2'-ethoxycarbonyl)cyclopropyl-3-methyl-3-cephem-4-carboxylate-1,1-dioxide] the IC50 (trypsin; [2]) was 0.58 µM, the IC50 (cathepsin C) was > 40 µM and the IC50 (cathepsin G; [4]) was 13 µM. For the same molecule, the IC50 [1] was 0.0313 µM.
For `CC1=C(C(=O)OC(c2ccccc2)c2ccccc2)N2C(=O)[C@H](Br)[C@H]2S(=O)(=O)C12CC2(C)c1ccccc1` (stereo partly drawn) [Example 13 (2), Benzhydryl 7α-bromo-2-spiro(2'-phenyl-2'-methyl) cyclopropyl-3-methyl-3-cephem-4-carboxylate-1,1-dioxide], the IC50 (trypsin; [2]) was 0.147 µM, the IC50 (cathepsin C) was > 40 µM and the IC50 (cathepsin G) was 40 µM. It also gave an IC50 [1] of 0.0557 µM.
